Measurements: patent US7511145B2 (Genelabs Technologies, Inc., priority 2003, dated 2009)

Target: T1, HCV-NS5b (Hepatitis C virus genotype 1b, UniProt Q9WMX2)
T1 construct: (His)6 (C); made in house; host or cells: XL-1 cells (E. coli), IPTG-inducible plasmid, nickel-NTA purification
Assay: HCV-NS5b enzyme assay (incorporation of radiolabeled UTP)
Format: biochemical
Conditions: for inhibition at 100 µM: read-out: % inh@100, enzyme inhibition at compound concentration of 100 uM
Summary of the method: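 Percent inhibition, background-corrected against uninhibited control, was measured at 100 and 33 uM compound. Incorporation of [3H]-UTP (10 μM each NTP) into biotinylated HCV-template RNA, 37° C for 2 h, pH 7.5, scintillation proximity. Enzyme: C-terminally truncated (21 aa), His6-tagged NS5b from XL-1.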

[1] = enzyme inhibition at compound concentration of 33 uM

| Compound | inhibition at 33 µM [1] [%] | inhibition at 100 µM [%] | % inh@33 [1] [%] | % inh@100 (enzyme inhibition at compound concentration of 100 uM) [%] |
| --- | --- | --- | --- | --- |
| O=C(O)c1ccc2c(c1)nc(-c1ccc3nc(-c4cccc(O)c4)ccc3c1)n2C1CCCCC1 [Compound 474, 1-Cyclohexyl-2-[2-(3-hydroxy-phenyl)-quinolin-6-yl]-1H-benzoimidazole-5-carboxylic acid] | 97 | 101 | – | – |
| CN(C)CCNC(=O)c1ccc(-c2ccc(Cl)cc2)c(-c2ccc3cc(-c4nc5cc(C(=O)O)ccc5n4C4CCCCC4)ccc3n2)c1 [Compound 491, 2-{2-[4′-Chloro-4-(2-dimethylamino-ethylcarbamoyl)-biphen-2-yl]-quinolin-6-yl}-1-cyclohexyl-1H-benzoimidazole-5-carboxylic acid] | 98.3 | 100 | – | – |
| CNC(=O)c1ccc(-c2ccccc2)c(-c2ccc3cc(-c4nc5cc(C(=O)O)ccc5n4C4CCCCC4)ccc3n2)c1 [Compound 362, 1-cyclohexyl-2-[2-(4-methylcarbamoyl-biphen-2-yl)-quinolin-6-yl]-1H-benzoimidazole-5-carboxylic acid] | 101 | 98.4 | – | – |
| O=C(O)c1ccc2c(c1)nc(-c1ccc3nc(-c4cc(Br)ccc4O)ccc3c1)n2C1CCCCC1 [Compound 354, 2-[2-(5-Bromo-2-hydroxy-phenyl)-quinolin-6-yl]-1-cyclohexyl-1H-benzoimidazole-5-carboxylic acid] | 98 | 101 | – | – |
| Cc1onc(-c2ccc(Cl)cc2)c1-c1ccc2cc(-c3nc4cc(C(=O)O)ccc4n3C3CCCCC3)ccc2n1 [Compound 396, 2-{2-[3-(4-chloro-phenyl)-5-methyl-isoxazol-4-yl]-quinolin-6-yl}-1-cyclohexyl-1H-benzoimidazole-5-carboxylic acid] | 100 | 100 | – | – |
| COc1ccc(-c2ccc(O)cc2)c(-c2ccc3cc(-c4nc5cc(C(=O)O)ccc5n4C4CCCCC4)ccc3n2)c1 [Compound 469, 1-cyclohexyl-2-[2-(4′-hydroxy-4-methoxy-biphen-2-yl)-quinolin-6-yl]-1H-benzoimidazole-5-carboxylic acid] | 94.2 | 98.2 | – | – |
| O=C(O)C[C@H](NC(=O)c1ccc2c(c1)nc(-c1ccc3nc(-c4ccccc4)cnc3c1)n2C1CCCCC1)C(=O)O [Compound 244, 2-{[1-Cyclohexyl-2-(2-phenyl-quinoxalin-6-yl)-1H-benzoimidazole-5-carbonyl]-amino}-succinic acid] | 75.7 | 97 | – | – |
| O=C(O)c1ccc2c(c1)nc(-c1ccc3nc(-c4cc(O)ccc4-c4ccccc4)ccc3c1)n2C1CCCCC1 [Compound 487, 1-Cyclohexyl-2-[2-(4-hydroxy-biphen-2-yl)-quinolin-6-yl]-1H-benzoimidazole-5-carboxylic acid] | 102 | 101 | – | – |
| O=C(O)c1ccc2c(c1)nc(-c1ccc3nc(-c4ccccc4)cc(Oc4ccc5ccc(O)cc5c4)c3c1)n2C1CCCCC1 [Compound 509, 1-cyclohexyl-2-[4-(7-hydroxy-naphthalen-2-yloxy)-2-phenyl-quinolin-6-yl]-1H-benzoimidazole-5-carboxylic acid] | 100 | 101 | – | – |
| O=C(O)c1ccc2c(c1)nc(-c1ccc3nc(-c4cc(F)ccc4-c4ccc(Cl)cc4)ccc3c1)n2C1CCCCC1 [Compound 563, 2-[2-(4′-Chloro-4-fluoro-biphen-2-yl)-quinolin-6-yl]-1-cyclohexyl-1H-benzoimidazole-5-carboxylic acid] | 101 | 101 | – | – |
| O=C(NCCS(=O)(=O)O)c1ccc2c(c1)nc(-c1ccc3nc(-c4ccccc4)cnc3c1)n2C1CCCCC1 [Compound 524] | – | – | 74.09 | 93.58 |
| O=C(O)c1ccc2c(c1)nc(-c1ccc3nc(-c4cc(C(=O)N5CCCC5)ccc4-c4ccc([N+](=O)[O-])cc4)ccc3c1)n2C1CCCCC1 [Compound 435, 1-cyclohexyl-2-{2-[4′-nitro-4-(pyrrolidine-1-carbonyl)biphen-2-yl]quinolin-6-yl}-1H-benzimidazole-5-carboxylic acid] | 102 | 101 | – | – |
| O=C(O)c1ccc2c(c1)nc(-c1ccc3nc(-c4cccc(Br)c4)ccc3c1)n2C1CCCCC1 [Compound 482, 2-[2-(3-bromo-phenyl)-quinolin-6-yl]-1-cyclohexyl-1H-benzoimidazole-5-carboxylic acid] | 100 | 101 | – | – |
| Cn1c2ccc(Cl)cc2c2cc(-c3ccc4cc(-c5nc6cc(C(=O)O)ccc6n5C5CCCCC5)ccc4n3)ccc21 [Compound 463, 2-[2-(6-chloro-9-methyl-9H-carbazol-3-yl)-quinolin-6-yl]-1-cyclohexyl-1H-benzoimidazole-5-carboxylic acid] | 96 | 97.2 | – | – |
| O=C(O)c1ccc2c(c1)nc(-c1ccc3nc(-c4cc5cccc(O)c5o4)ccc3c1)n2C1CCCCC1 [Compound 411, 1-cyclohexyl-2-[2-(7-hydroxy-benzofuran-2-yl)-quinolin-6-yl]-1H-benzoimidazole-5-carboxylic acid] | 78.1 | 91.5 | – | – |
| O=C(O)c1ccc2c(c1)nc(-c1ccc3nc(-c4ccc5c(c4)CCCC5)ccc3c1)n2C1CCCCC1 [Compound 459, 1-cyclohexyl-2-[2-(5,6,7,8-tetrahydro-naphthalen-2-yl)-quinolin-6-yl]-1H-benzoimidazole-5-carboxylic acid] | 99.5 | 99.8 | – | – |
| O=C(O)c1ccc2c(c1)nc(-c1ccc3nc(-c4ccccc4)cnc3c1)n2C1CCCCC1 [Compound 203, 1-Cyclohexyl-2-(2-phenyl-quinoxalin-6-yl)-1H-benzoimidazole-5-carboxylic acid] | 75 | 97.5 | – | – |
| COc1ccc(-c2cnc(OC)nc2OC)c(-c2ccc3cc(-c4nc5cc(C(=O)O)ccc5n4C4CCCCC4)ccc3n2)c1 [Compound 484, 1-cyclohexyl-2-{2-[2-(2,4-dimethoxy-pyrimidin-5-yl)-5-methoxy-phenyl]-quinolin-6-yl}-1H-benzoimidazole-5-carboxylic acid] | 99.6 | 98.3 | – | – |
| O=C(O)c1ccc2c(c1)nc(-c1ccc3nc(-c4ccccc4Br)ccc3c1)n2C1CCCCC1 [Compound 352, 2-[2-(2-bromo-phenyl)-quinolin-6-yl]-1-cyclohexyl-1H-benzoimidazole-5-carboxylic acid] | 94.2 | 98.8 | – | – |
| CC(NC(=O)c1ccc2cc(-c3nc4cc(C(=O)O)ccc4n3C3CCCCC3)ccc2n1)C(N)=O (centres unmarked) [Compound 497, 2-[2-(1-Carbamoylethylcarbamoyl)quinolin-6-yl]-1-cyclohexyl-1H-benzimidazole-5-carboxylic acid] | 65.5 | 88.5 | – | – |
| COCCOc1cccc(-c2ccc3cc(-c4nc5cc(C(=O)O)ccc5n4C4CCCCC4)ccc3n2)c1 [Compound 445, 1-Cyclohexyl-2-{2-[3-(2-methoxy-ethoxy)-phenyl]-quinolin-6-yl}-1H-benzoimidazole-5-carboxylic acid] | 96.9 | 99.6 | – | – |
| O=C(O)c1ccc2c(c1)nc(-c1ccc3nc(-c4ccccc4)cc(Sc4ccccc4)c3c1)n2C1CCCCC1 [Compound 467, 1-Cyclohexyl-2-(2-phenyl-4-phenylsulfanyl-quinolin-6-yl)-1H-benzoimidazole-5-carboxylic acid] | 96.3 | 100 | – | – |
| O=C(N[C@@H](CO)C(=O)O)c1ccc2c(c1)nc(-c1ccc3nc(-c4ccccc4)ccc3c1)n2C1CCCCC1 [Compound 231, 2-{[1-Cyclohexyl-2-(2-phenyl-quinolin-6-yl)-1H-benzoimidazole-5-carbonyl]-amino}-3-hydroxy-propionic acid] | 67 | 97.5 | – | – |
| Cc1ccc2cc(-c3ccc4cc(-c5nc6cc(C(=O)O)ccc6n5C5CCCCC5)ccc4n3)ccc2c1 [Compound 444, 1-cyclohexyl-2-[2-(6-methyl-naphthalen-2-yl)-quinolin-6-yl]-1H-benzoimidazole-5-carboxylic acid] | 99.5 | 101 | – | – |
| Cc1ccc(-c2nc3ccc(-c4nc5cc(C(=O)O)ccc5n4C4CCCCC4)cc3nc2-c2ccc(C)cc2)cc1 [Compound 389, 1-Cyclohexyl-2-(2,3-di-p-tolylquinoxalin-6-yl)-1H-benzimidazole-5-carboxylic acid] | 99.9 | 99.5 | – | – |
| O=C(O)c1ccc2c(c1)nc(-c1ccc3nc(-c4cc(OCC(=O)N5CCCC5)ccc4-c4ccc(Cl)cc4)ccc3c1)n2C1CCCCC1 [Compound 376, 2-{2-[4′-Chloro-4-(2-oxo-2-pyrrolidin-1-yl-ethoxy)-biphen-2-yl]-quinolin-6-yl}-1-cyclohexyl-1H-benzoimidazole-5-carboxylic acid] | 97.4 | 97.2 | – | – |
| CNC(=O)c1ccc(-c2ccc(Cl)cc2)c(-c2ccc3cc(-c4nc5cc(C(=O)O)ccc5n4C4CCCCC4)ccc3n2)c1 [Compound 378, 2-[2-(4′-chloro-4-methylcarbamoyl-biphen-2-yl)-quinolin-6-yl]-1-cyclohexyl-1H-benzoimidazole-5-carboxylic acid] | 100 | 101 | – | – |
| O=C(O)c1ccc2c(c1)nc(-c1ccc3nc(-c4ccccc4-c4ccc(Cl)cc4)ccc3c1)n2C1CCCCC1 [Compound 387, 2-[2-(4′-Chloro-biphen-2-yl)-quinolin-6-yl]-1-cyclohexyl-1H-benzoimidazole-5-carboxylic acid] | 99 | 98.7 | – | – |
